Assay results published in ChEMBL document CHEMBL5338806, “Rationally Designed Nonapeptides with Great Skin Photoprotective Effect through Producing Type 1 Collagen and Blocking the mTOR Pathway” (J Med Chem, 2023).
Calls of active or inactive are those of the source. No cut-off for these calls is given here. Where a SMILES comes first, the peptide text is derived from it.

Tests used:
[1] = tested on: HEK293; experiment: Activation of COL1a2 transcriptional activity in HEK293 cells by dual-luciferase reporter assay; type: functional, cell-based; conditions: Homo sapiens
[2] = Antioxidant activity assessed as DPPH radical scavenging activity by measuring eradication rate at 80 ug/mL incubated for 30 mins by absorbance based assay relative to control; type: functional; conditions: dose 80.0 µg/ml
[3] = Antioxidant activity assessed as ABTS radical scavenging activity at 80 ug/mL incubated for 10 mins by absorbance based assay; type: functional; conditions: dose 80.0 µg/ml
[4] = tested on: Mus musculus; experiment: Protection against UV radiation-stress induced skin damage in Kunming mouse model assessed as repair of broken skin at 20 ug/ml administered topically and measured every 2 days for 10 days; type: functional, organism-based; conditions: dose 20.0 µg/ml, route top, time 10.0 day
[5] = Antioxidant activity assessed as ROS scavenging activity; type: functional

Row | Structure (SMILES) | Activity [1] | Activity [2] [%] | Activity [3] | Activity [4] | Activity [5]
1 | CC(C)C[C@H](NC(=O)[C@H](Cc1c[nH]c2ccccc12)NC(=O)[C@@H]1CCCN1C(=O)[C@@H]1CCCN1C(=O)[C@H](CC(C)C)NC(=O)[C@@H](N)CC(C)C)C(=O)N[C@@H](CCCNC(=N)N)C(=O)N1CCC[C@H]1C(=O)N[C@@H](CCCCN)C(=O)N[C@@H](CS)C(=O)N[C@@H](CO)C(=O)O (H-LLPPWLRPKCS-OH) | Active | – | – | – | –
2 | CC(C)C[C@H](NC(=O)[C@@H](N)C(C)C)C(=O)N[C@@H](CCCCN)C(=O)N[C@@H](CCCCN)C(=O)N[C@@H](CS)C(=O)O (H-VLKKC-OH) | Active | 96.8 | Active | Active | Active
3 | CC(C)C[C@H](NC(=O)[C@@H](N)C(C)C)C(=O)N1CCC[C@H]1C(=O)N[C@@H](CCCCN)C(=O)N[C@@H](CS)C(=O)N[C@@H](Cc1c[nH]c2ccccc12)C(=O)O (H-VLPKCW-OH) | – | – | – | – | Active
4 | CC(C)C[C@H](NC(=O)[C@H](CCCCN)NC(=O)[C@@H]1CCCN1C(=O)[C@H](CC(C)C)NC(=O)[C@@H](N)C(C)C)C(=O)N[C@@H](CCC(=O)O)C(=O)N[C@@H](CS)C(=O)N[C@H](C(=O)N[C@@H](Cc1c[nH]c2ccccc12)C(=O)O)C(C)C (H-VLPKLECVW-OH) | Active | – | – | – | –
